In article PMC7584476, “Safety and efficacy of BAY1436032 in IDH1-mutant AML: phase I study results” (Leukemia, 2020):

Tested on: subjects with mIDH1 advanced AML
Assay: Phase I study: safety and tolerability (TEAE, DLT, MTD, ECG)
Type: in vivo
Description: This study was an open-label, nonrandomized, multicenter phase I trial. Subjects were screened at 13 hospital sites in 2 countries (USA and Germany). The study was to consist of dose-escalation followed by dose-expansion. The MTD identified in dose-escalation was to be used in the dose-expansion. If MTD was not reached in dose-escalation, a dose for the expansion would be selected based on available PK, pharmacodynamic, safety, and efficacy data. BAY1436032 was administered twice-daily (BID) in continuous 28-day cycles. In dose-escalation, up to 9 evaluable subjects could be enrolled per cohort, with a minimum of 3 dose-limiting toxicity (DLT)-free evaluable subjects required prior to escalating to the next highest dose. Bayesian dose-DLT modeling was performed to help guide dosing decisions.
DLTs were differentially defined for nonhematopoietic versus hematopoietic toxicities. Nonhematopoietic toxicities of ≥grade 3 occurring during the first cycle of treatment were to be considered DLTs with the following exceptions: (1) Alopecia and nausea controlled by medical management; (2) Tumor lysis syndrome if successfully managed clinically and resolved within 7 days without any end-organ damage; (3) Differentiation syndrome (DS) if successfully managed clinically and resolved within 7 days without any end-organ damage; (4) Asymptomatic ≥grade 3 electrolyte abnormalities not considered clinically significant by the investigator. […] For certain toxicities such as laboratory assessments without a clear clinical correlate, a discussion between the investigator and the sponsor determined whether the adverse event (AE) should be assessed as a DLT.
DLTs identified during the first cycle of treatment were used to guide dose-escalation decisions and to determine the MTD, and if safety issues appeared in subsequent cycles they were also to be considered. Hydroxyurea was permitted during the first cycle if white blood cell (WBC) exceeded 20 × 10^9/L and was also permitted for treatment of DS.
Safety and tolerability were evaluated by analysis of adverse events, physical examinations, vital signs, ECOG performance status, and various laboratory assessments. For safety monitoring, subjects were scheduled for clinic visits every week for the initial three cycles of treatment, after which time visits could be reduced to every-other-week with investigator and sponsor agreement. Cardiac function was assessed with triplicate 12-lead electrocardiograms (ECG) at screening, C1-D1, C1-D2, C1-D15, D1 of every subsequent cycle, and at treatment end. […] AEs are presented by the Medical Dictionary for Regulatory Activities (MedDRA) v21.1.

C[C@H]1C[C@@H](n2c(Nc3ccc(OC(F)(F)F)cc3)nc3cc(CCC(=O)O)ccc32)CC(C)(C)C1 [BAY1436032]
TEAE Decreased appetite Grade 1 (600 mg BID, n=4): 0
TEAE Decreased appetite Grade 2 (600 mg BID, n=4): 0
TEAE Decreased appetite Grade 3 (600 mg BID, n=4): 0
TEAE Diarrhea Grade 1 (600 mg BID, n=4): 0
TEAE Diarrhea Grade 2 (600 mg BID, n=4): 0
TEAE Dry skin Grade 1 (600 mg BID, n=4): 1
TEAE Dyspnoea Grade 1 (600 mg BID, n=4): 0
TEAE Dyspnoea Grade 2 (600 mg BID, n=4): 0
TEAE Dyspnoea Grade 3 (600 mg BID, n=4): 0
TEAE Epistaxis Grade 1 (600 mg BID, n=4): 1
TEAE Epistaxis Grade 2 (600 mg BID, n=4): 0
TEAE Epistaxis Grade 3 (600 mg BID, n=4): 1
TEAE Fall Grade 1 (600 mg BID, n=4): 1
TEAE Fatigue Grade 1 (600 mg BID, n=4): 1
TEAE Fatigue Grade 2 (600 mg BID, n=4): 0
TEAE Fatigue Grade 3 (600 mg BID, n=4): 0
TEAE Febrile neutropenia Grade 3 (600 mg BID, n=4): 1
TEAE General physical health deterioration Grade 3 (600 mg BID, n=4): 0
TEAE General physical health deterioration Grade 5 (600 mg BID, n=4): 0
TEAE Gingivitis Grade 1 (600 mg BID, n=4): 1
TEAE Haematuria Grade 1 (600 mg BID, n=4): 0
TEAE Haematuria Grade 2 (600 mg BID, n=4): 1
TEAE Haematuria Grade 3 (600 mg BID, n=4): 0
TEAE Headache Grade 1 (600 mg BID, n=4): 0
TEAE Headache Grade 2 (600 mg BID, n=4): 0
TEAE Headache Grade 3 (600 mg BID, n=4): 0
TEAE Hyperkalaemia Grade 1 (600 mg BID, n=4): 1
TEAE Hyperkalaemia Grade 4 (600 mg BID, n=4): 1
TEAE Hypertension Grade 2 (600 mg BID, n=4): 0
TEAE Hypertension Grade 3 (600 mg BID, n=4): 0
TEAE Hyperuricaemia Grade 1 (600 mg BID, n=4): 1
TEAE Hyperuricaemia Grade 3 (600 mg BID, n=4): 1
TEAE Hypokalaemia Grade 1 (600 mg BID, n=4): 0
TEAE Hypokalaemia Grade 2 (600 mg BID, n=4): 0
TEAE Hypokalaemia Grade 3 (600 mg BID, n=4): 0
TEAE Hyponatraemia Grade 1 (600 mg BID, n=4): 0
TEAE Hyponatraemia Grade 3 (600 mg BID, n=4): 0
TEAE Hypophosphataemia Grade 1 (600 mg BID, n=4): 0
TEAE Hypophosphataemia Grade 2 (600 mg BID, n=4): 0
TEAE Leukocytosis Grade 2 (600 mg BID, n=4): 0
TEAE Leukocytosis Grade 3 (600 mg BID, n=4): 0
TEAE Lung infection Grade 3 (600 mg BID, n=4): 1
TEAE Lung infection Grade 5 (600 mg BID, n=4): 0
TEAE Nausea Grade 1 (600 mg BID, n=4): 1
TEAE Nausea Grade 2 (600 mg BID, n=4): 0
TEAE Nausea Grade 3 (600 mg BID, n=4): 0
TEAE Oedema peripheral Grade 1 (600 mg BID, n=4): 1
TEAE Oedema peripheral Grade 3 (600 mg BID, n=4): 0
TEAE Pain in extremity Grade 1 (600 mg BID, n=4): 0
TEAE Pain in extremity Grade 2 (600 mg BID, n=4): 0
TEAE Pneumonia Grade 1 (600 mg BID, n=4): 0
TEAE Pneumonia Grade 2 (600 mg BID, n=4): 0
TEAE Pneumonia Grade 3 (600 mg BID, n=4): 0
TEAE Pneumonia fungal Grade 2 (600 mg BID, n=4): 0
TEAE Pneumonia fungal Grade 3 (600 mg BID, n=4): 0
TEAE Pneumonia fungal Grade 4 (600 mg BID, n=4): 0
TEAE Productive cough Grade 1 (600 mg BID, n=4): 1
TEAE Productive cough Grade 2 (600 mg BID, n=4): 0
TEAE Pyrexia Grade 1 (600 mg BID, n=4): 1
TEAE Pyrexia Grade 2 (600 mg BID, n=4): 1
TEAE Pyrexia Grade 3 (600 mg BID, n=4): 0
TEAE Rash Grade 1 (600 mg BID, n=4): 0
TEAE Rash Grade 2 (600 mg BID, n=4): 1
TEAE Sepsis Grade 4 (600 mg BID, n=4): 1
TEAE Sepsis Grade 5 (600 mg BID, n=4): 0
TEAE Sinus tachycardia Grade 1 (600 mg BID, n=4): 0
TEAE Thrombocytopenia Grade 4 (600 mg BID, n=4): 0
TEAE Vomiting Grade 1 (600 mg BID, n=4): 1
TEAE Weight decreased Grade 1 (600 mg BID, n=4): 0
TEAE Weight decreased Grade 2 (600 mg BID, n=4): 1
TEAE Weight decreased Grade 3 (600 mg BID, n=4): 0
Related TEAE Decreased appetite Grade 1 (1200 mg BID, n=7): 0
Related TEAE Decreased appetite Grade 2 (1200 mg BID, n=7): 0
Related TEAE Diarrhea Grade 2 (1200 mg BID, n=7): 2
Related TEAE Differentiation syndrome Grade 2 (1200 mg BID, n=7): 0
Related TEAE Differentiation syndrome Grade 3 (1200 mg BID, n=7): 1
Related TEAE Dyspnea Grade 1 (1200 mg BID, n=7): 1
Related TEAE Dyspnea Grade 2 (1200 mg BID, n=7): 0
Related TEAE Fatigue Grade 1 (1200 mg BID, n=7): 0
Related TEAE Fatigue Grade 2 (1200 mg BID, n=7): 1
Related TEAE Fatigue Grade 3 (1200 mg BID, n=7): 0
Related TEAE Hypomagnesaemia Grade 1 (1200 mg BID, n=7): 0
Related TEAE Nausea Grade 1 (1200 mg BID, n=7): 1
Related TEAE Nausea Grade 2 (1200 mg BID, n=7): 0
Related TEAE Sinus tachycardia Grade 1 (1200 mg BID, n=7): 0
Related TEAE Vomiting Grade 1 (1200 mg BID, n=7): 0
TEAE Abdominal pain upper Grade 1 (1200 mg BID, n=7): 0
TEAE Abdominal pain upper Grade 2 (1200 mg BID, n=7): 0
TEAE Acute kidney injury Grade 1 (1200 mg BID, n=7): 0
TEAE Acute kidney injury Grade 2 (1200 mg BID, n=7): 0
TEAE Acute kidney injury Grade 3 (1200 mg BID, n=7): 0
TEAE Anaemia Grade 3 (1200 mg BID, n=7): 3
TEAE Anaemia Grade 4 (1200 mg BID, n=7): 0
TEAE Anxiety Grade 1 (1200 mg BID, n=7): 1
TEAE Anxiety Grade 2 (1200 mg BID, n=7): 0
TEAE Arthralgia Grade 1 (1200 mg BID, n=7): 0
TEAE Arthralgia Grade 2 (1200 mg BID, n=7): 1
TEAE Constipation Grade 1 (1200 mg BID, n=7): 1
TEAE Constipation Grade 2 (1200 mg BID, n=7): 0
TEAE Contusion Grade 1 (1200 mg BID, n=7): 1
TEAE Contusion Grade 2 (1200 mg BID, n=7): 0
TEAE Cough Grade 1 (1200 mg BID, n=7): 0
TEAE Cough Grade 2 (1200 mg BID, n=7): 0
TEAE Decreased appetite Grade 1 (1200 mg BID, n=7): 0
TEAE Decreased appetite Grade 2 (1200 mg BID, n=7): 1
TEAE Decreased appetite Grade 3 (1200 mg BID, n=7): 0
TEAE Diarrhea Grade 1 (1200 mg BID, n=7): 1
TEAE Diarrhea Grade 2 (1200 mg BID, n=7): 2
TEAE Dry skin Grade 1 (1200 mg BID, n=7): 1
TEAE Dyspnoea Grade 1 (1200 mg BID, n=7): 1
TEAE Dyspnoea Grade 2 (1200 mg BID, n=7): 1
TEAE Dyspnoea Grade 3 (1200 mg BID, n=7): 0
TEAE Epistaxis Grade 1 (1200 mg BID, n=7): 0
TEAE Epistaxis Grade 2 (1200 mg BID, n=7): 2
TEAE Epistaxis Grade 3 (1200 mg BID, n=7): 0
TEAE Fall Grade 1 (1200 mg BID, n=7): 1
TEAE Fatigue Grade 1 (1200 mg BID, n=7): 0
TEAE Fatigue Grade 2 (1200 mg BID, n=7): 2
TEAE Fatigue Grade 3 (1200 mg BID, n=7): 0
TEAE Febrile neutropenia Grade 3 (1200 mg BID, n=7): 2
TEAE General physical health deterioration Grade 3 (1200 mg BID, n=7): 0
TEAE General physical health deterioration Grade 5 (1200 mg BID, n=7): 0
TEAE Gingivitis Grade 1 (1200 mg BID, n=7): 0
TEAE Haematuria Grade 1 (1200 mg BID, n=7): 1
TEAE Haematuria Grade 2 (1200 mg BID, n=7): 0
TEAE Haematuria Grade 3 (1200 mg BID, n=7): 0
TEAE Headache Grade 1 (1200 mg BID, n=7): 0
TEAE Headache Grade 2 (1200 mg BID, n=7): 0
TEAE Headache Grade 3 (1200 mg BID, n=7): 0
TEAE Hyperkalaemia Grade 1 (1200 mg BID, n=7): 0
TEAE Hyperkalaemia Grade 4 (1200 mg BID, n=7): 0
TEAE Hypertension Grade 2 (1200 mg BID, n=7): 0
TEAE Hypertension Grade 3 (1200 mg BID, n=7): 1
TEAE Hyperuricaemia Grade 1 (1200 mg BID, n=7): 2
TEAE Hyperuricaemia Grade 3 (1200 mg BID, n=7): 0
